This note sets out measurements from patent US9796704B2, “Substituted quinazolines as receptor-type kinase inhibitors” (Symphony Evolution, Inc., priority 2002, dated 2017).

One assay addresses KDR (Homo sapiens (Human), UniProt P35968). Kind of assay: KDR kinase inhibition, luciferase-coupled chemiluminescent assay (LCCA). To be noted: read-out: KDR IC50.
In a further assay the target is EGFR (Homo sapiens (Human), UniProt P00533). Kind of assay: EGFR kinase inhibition, luciferase-coupled chemiluminescent assay (LCCA). To be noted: read-out: EGFR IC50.
Sequence of EGFR (P00533 672-1210): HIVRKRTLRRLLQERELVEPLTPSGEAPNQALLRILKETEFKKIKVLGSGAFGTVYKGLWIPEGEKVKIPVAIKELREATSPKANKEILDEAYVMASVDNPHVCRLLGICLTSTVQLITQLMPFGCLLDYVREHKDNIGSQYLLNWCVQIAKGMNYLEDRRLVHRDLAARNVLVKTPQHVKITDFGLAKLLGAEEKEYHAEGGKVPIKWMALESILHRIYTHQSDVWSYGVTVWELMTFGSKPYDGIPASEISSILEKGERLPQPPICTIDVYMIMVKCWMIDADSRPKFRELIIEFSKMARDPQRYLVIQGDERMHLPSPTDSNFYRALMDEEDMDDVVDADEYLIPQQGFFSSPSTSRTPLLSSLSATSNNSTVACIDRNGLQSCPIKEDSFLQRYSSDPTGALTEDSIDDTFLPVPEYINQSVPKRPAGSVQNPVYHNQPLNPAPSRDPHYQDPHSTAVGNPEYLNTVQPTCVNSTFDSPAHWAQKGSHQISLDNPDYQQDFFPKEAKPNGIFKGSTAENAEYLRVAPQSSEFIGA
Another assay deals with EphA2 (Homo sapiens (Human), UniProt P29317). Put plainly: EphA2 kinase inhibition, luciferase-coupled chemiluminescent assay (LCCA). Conditions: read-out: EphA2 IC50.
Sequence of EphA2 (P29317 598-890): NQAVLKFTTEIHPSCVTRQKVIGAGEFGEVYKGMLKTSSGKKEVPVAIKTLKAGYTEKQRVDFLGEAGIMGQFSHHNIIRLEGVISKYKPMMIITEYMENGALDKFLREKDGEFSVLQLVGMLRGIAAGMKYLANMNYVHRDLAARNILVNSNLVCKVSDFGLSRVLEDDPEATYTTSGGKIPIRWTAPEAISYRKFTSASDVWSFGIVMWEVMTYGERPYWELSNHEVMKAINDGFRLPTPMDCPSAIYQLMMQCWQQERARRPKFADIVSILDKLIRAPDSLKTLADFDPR
Another assay deals with EphB4 (Homo sapiens (Human), UniProt P54760). Put plainly: EphB4 kinase inhibition, 33P phosphoryl transfer assay (radiometric). The class given is biochemical.
Sequence of EphB4 (P54760 605-890): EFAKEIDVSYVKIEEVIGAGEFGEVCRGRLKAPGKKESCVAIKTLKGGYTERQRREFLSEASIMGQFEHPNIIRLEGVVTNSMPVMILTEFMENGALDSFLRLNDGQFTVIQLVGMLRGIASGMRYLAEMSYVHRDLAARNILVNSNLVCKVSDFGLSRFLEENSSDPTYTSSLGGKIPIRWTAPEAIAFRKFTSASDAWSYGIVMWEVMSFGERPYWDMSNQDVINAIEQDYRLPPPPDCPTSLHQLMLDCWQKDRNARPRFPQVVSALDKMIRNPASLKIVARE

Sequence of KDR (P35968 807-1356): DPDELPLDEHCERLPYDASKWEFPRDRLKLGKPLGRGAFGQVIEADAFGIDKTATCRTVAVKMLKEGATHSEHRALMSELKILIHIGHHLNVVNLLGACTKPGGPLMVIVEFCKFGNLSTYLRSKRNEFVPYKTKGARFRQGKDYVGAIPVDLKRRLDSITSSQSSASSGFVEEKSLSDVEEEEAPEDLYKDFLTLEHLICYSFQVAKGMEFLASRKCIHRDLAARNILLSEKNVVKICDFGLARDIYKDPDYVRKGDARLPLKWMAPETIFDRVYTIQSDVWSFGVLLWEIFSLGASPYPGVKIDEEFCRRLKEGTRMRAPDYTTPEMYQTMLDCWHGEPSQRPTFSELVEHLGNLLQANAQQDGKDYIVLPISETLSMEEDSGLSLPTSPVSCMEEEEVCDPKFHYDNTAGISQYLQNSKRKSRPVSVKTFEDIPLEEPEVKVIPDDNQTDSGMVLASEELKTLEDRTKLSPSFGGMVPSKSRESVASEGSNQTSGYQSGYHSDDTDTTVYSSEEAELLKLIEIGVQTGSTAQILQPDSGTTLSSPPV
Experimental for EphA2: (§1) Kinase activity and compound inhibition are investigated using one or more of the three assay formats described below. The ATP concentrations are selected near its Michaelis-Menten constant (KM) for each individual kinase. Dose-response experiments are performed at ten different inhibitor concentrations in a 384-well plate format. […] Typically H is close to unity.
(§2) In the LCCA assays, kinase activity is measured by the ATP consumption that is accurately measured by luciferase-coupled chemiluminescence. Greiner 384-well white clear bottom medium binding plates are used for LCCA. Briefly the kinase reaction is initiated by mixing compounds, ATP and kinases in a 20 μL volume. At the end of the kinase reaction, a 20 μL luciferase-luciferin mix is added and the chemiluminescent signal is read on a Wallac Victor^2 reader.
Experimental for KDR: as §1, §2

By IC50 is commonly meant the concentration that gives 50% inhibition. `COc1cc2c(Nc3ccc(Br)c(Cl)c3)ncnc2cc1O[C@H]1CO[C@H]2[C@@H]1OC[C@@H]2OC` [Example 73, 1,4:3,6-dianhydro-2-O-[4-[(4-bromo-3-chlorophenyl)amino]-6-(methyloxy)quinazolin-7-yl]-5-O-methyl-L-iditol]: the half-inhibitory concentration (IC50) on KDR was < 50 nM.

`COc1cc2c(Nc3ccc(Br)c(Cl)c3)ncnc2cc1O[C@H]1CO[C@H]2[C@@H]1OC[C@H]2OC` [Example 78, 1,4:3,6-dianhydro-2-O-[4-[(4-bromo-3-chlorophenyl)amino]-6-(methyloxy)quinazolin-7-yl]-5-O-methyl-D-glucitol]: the IC50 on KDR was < 50 nM.

With `COc1cc2c(Nc3c(F)cccc3F)ncnc2cc1O[C@@H]1CO[C@@H]2[C@H]1OC[C@H]2F` [Example 87, 1,4:3,6-dianhydro-2-deoxy-5-O-[4-[(2,6-difluorophenyl)amino]-6-(methyloxy)quinazolin-7-yl]-2-fluoro-D-iditol], the IC50 on KDR and at EGFR was < 50 nM throughout.

As for `COc1cc2c(Nc3ccc(F)cc3F)ncnc2cc1O[C@@H]1CO[C@@H]2[C@H]1OC[C@H]2F` [Example 90, 1,4:3,6-dianhydro-2-deoxy-5-O-[4-[(2,4-difluorophenyl)amino]-6-(methyloxy)quinazolin-7-yl]-2-fluoro-D-iditol], the half-maximal inhibitory concentration (IC50) at KDR and on EGFR was < 50 nM each time.

On to `COc1cc2c(Nc3ccc(Cl)cc3F)ncnc2cc1O[C@@H]1CO[C@@H]2[C@H]1OC[C@H]2F` [Example 109, 1,4:3,6-dianhydro-5-O-[4-[(4-chloro-2-fluorophenyl)amino]-6-(methyloxy)quinazolin-7-yl]-2-deoxy-2-fluoro-D-iditol], for which the IC50 on KDR and on EGFR was < 50 nM throughout.

As to `COc1cc2c(Nc3c(F)cc(F)cc3Br)ncnc2cc1O[C@@H]1CO[C@@H]2[C@H]1OC[C@H]2F` [Example 120, 1,4:3,6-dianhydro-5-O-[4-[(2-bromo-4,6-difluorophenyl)amino]-6-(methyloxy)quinazolin-7-yl]-2-deoxy-2-fluoro-D-iditol], the IC50 at KDR and at EGFR was < 50 nM throughout.

With `COc1cc2c(Nc3cc(C(F)(F)F)ccc3Cl)ncnc2cc1O[C@@H]1CO[C@@H]2[C@H]1OC[C@H]2F` [Example 122, 1,4:3,6-dianhydro-5-O-[4-{[2-chloro-5-(trifluoromethyl)phenyl]amino}-6-(methyloxy)quinazolin-7-yl]-2-deoxy-2-fluoro-D-iditol], the concentration for half-maximal inhibition (IC50) at KDR and at EGFR was < 50 nM throughout.

For the molecule `COc1ccc(OC)c(Nc2ncnc3cc(O[C@@H]4CO[C@@H]5[C@H]4OC[C@H]5F)c(OC)cc23)c1` [Example 134, 1,4:3,6-dianhydro-5-O-[4-{[2,5-bis(methyloxy)phenyl]amino}-6-(methyloxy)quinazolin-7-yl]-2-deoxy-2-fluoro-D-iditol], the IC50 on KDR and on EGFR was < 50 nM throughout.

For the molecule `COc1cc2c(Nc3ccc(Cl)c(Cl)c3)ncnc2cc1OCc1noc(C(C)(C)C)n1` [Example 157, N-(3,4-dichlorophenyl)-7-({[5-(1,1-dimethylethyl)-1,2,4-oxadiazol-3-yl]methyl}oxy)-6-(methyloxy)quinazolin-4-amine], the IC50 on KDR and on EGFR was < 50 nM in each case.

In the case of `CCN1CCCC(c2nc(COc3cc4ncnc(Nc5ccc(Cl)c(Cl)c5)c4cc3OC)cs2)C1` (stereo not shown) [Example 254, N-(3,4-dichlorophenyl)-7-({[2-(1-ethylpiperidin-3-yl)-1,3-thiazol-4-yl]methyl}oxy)-6-(methyloxy)quinazolin-4-amine], the figures for the IC50 on EphA2, at EphB4 and at EGFR were 1000 to 20000 nM, 50 to 1000 nM and < 50 nM, respectively.

Take `COCCN1CCCOC(COc2cc3ncnc(Nc4ccc(Cl)c(Cl)c4)c3cc2OC)C1` (stereo not shown) [Example 260, N-(3,4-dichlorophenyl)-6-(methyloxy)-7-[({4-[2-(methyloxy)ethyl]-1,4-oxazepan-2-yl}methyl)oxy]quinazolin-4-amine]: the IC50 on EphA2 is 1000 to 20000 nM; on EphB4, 50 to 1000 nM; at EGFR, < 50 nM.

Regarding `COc1cc2c(Nc3ccc(Cl)c(Cl)c3)ncnc2cc1OCC1CN(C(C)C)CCCO1` (stereo not shown) [Example 261, N-(3,4-dichlorophenyl)-7-({[4-(1-methylethyl)-1,4-oxazepan-2-yl]methyl}oxy)-6-(methyloxy)quinazolin-4-amine], the concentration for half-maximal inhibition (IC50) at EphA2 is 1000 to 20000 nM; at EphB4 it was 50 to 1000 nM; at EGFR, < 50 nM.

For the molecule `COc1cc2c(Nc3ccc(Cl)c(Cl)c3)ncnc2cc1OCc1csc(N2CCNCC2)n1` [Example 262, N-(3,4-dichlorophenyl)-6-(methyloxy)-7-{[(2-piperazin-1-yl-1,3-thiazol-4-yl)methyl]oxy}quinazolin-4-amine], the IC50 at EphA2 was 1000 to 20000 nM; against EphB4 it was 50 to 1000 nM; at EGFR, < 50 nM.

For `COc1cc2c(Nc3ccc(Cl)c(Cl)c3)ncnc2cc1OCc1noc(C2CCCN2)n1` (stereo not shown) [Example 263, N-(3,4-dichlorophenyl)-6-(methyloxy)-7-{[(5-pyrrolidin-2-yl-1,2,4-oxadiazol-3-yl)methyl]oxy}quinazolin-4-amine], the IC50 at EphA2 was 1000 to 20000 nM; at EphB4, 50 to 1000 nM; at EGFR it was < 50 nM.

`CCN1CCCC1c1nc(COc2cc3ncnc(Nc4ccc(Cl)c(Cl)c4)c3cc2OC)no1` (stereo not shown) [Example 264, N-(3,4-dichlorophenyl)-7-({[5-(1-ethylpyrrolidin-2-yl)-1,2,4-oxadiazol-3-yl]methyl}oxy)-6-(methyloxy)quinazolin-4-amine]: the IC50 on EphA2 was 1000 to 20000 nM; against EphB4, 50 to 1000 nM; at EGFR, < 50 nM.

Take `COc1cc2c(Nc3ccc(Cl)c(Cl)c3)ncnc2cc1OCc1nc([C@@H]2CCCN2C)no1` [Example 265, N-(3,4-dichlorophenyl)-6-(methyloxy)-7-[({3-[(2S)-1-methylpyrrolidin-2-yl]-1,2,4-oxadiazol-5-yl}methyl)oxy]quinazolin-4-amine]: the 50% inhibitory concentration (IC50) is 1000 to 20000 nM on EphA2, 50 to 1000 nM against EphB4 and < 50 nM at EGFR.

On to `COc1cc2c(Nc3ccc(Cl)c(Cl)c3)ncnc2cc1OCc1csc([C@@H]2CCCN2C)n1` [Example 266, N-(3,4-dichlorophenyl)-6-(methyloxy)-7-[({2-[(2S)-1-methylpyrrolidin-2-yl]-1,3-thiazol-4-yl}methyl)oxy]quinazolin-4-amine], for which the values for the 50% inhibitory concentration (IC50) at EphA2, against EphB4 and at EGFR were 1000 to 20000 nM, 50 to 1000 nM and < 50 nM, respectively.

`CCN1CCN(c2nc(COc3cc4ncnc(Nc5ccc(Cl)c(Cl)c5)c4cc3OC)cs2)CC1` [Example 267, N-(3,4-dichlorophenyl)-7-({[2-(4-ethylpiperazin-1-yl)-1,3-thiazol-4-yl]methyl}oxy)-6-(methyloxy)quinazolin-4-amine]: the figures for the half-maximal inhibitory concentration (IC50) on EphA2, at EphB4 and on EGFR were 1000 to 20000 nM, 1000 to 20000 nM and < 50 nM, respectively.

As to `COc1cc2c(Nc3ccc(Cl)c(Cl)c3)ncnc2cc1OCC1CN(C)CCN1C` (stereo not shown) [Example 268, N-(3,4-dichlorophenyl)-7-{[(1,4-dimethylpiperazin-2-yl)methyl]oxy}-6-(methyloxy)quinazolin-4-amine], the 50% inhibitory concentration (IC50) on EphA2 was 1000 to 20000 nM; against EphB4, 50 to 1000 nM; on EGFR, < 50 nM.

With `COc1cc2c(Nc3ccc(Cl)c(Cl)c3)ncnc2cc1OCC1CN(C(C)C)CCO1` (stereo not shown) [Example 270, N-(3,4-dichlorophenyl)-7-({[4-(1-methylethyl)morpholin-2-yl]methyl}oxy)-6-(methyloxy)quinazolin-4-amine], the half-inhibitory concentration (IC50) at EphA2 is 1000 to 20000 nM; against EphB4 it was 50 to 1000 nM; at EGFR it was < 50 nM.

Regarding `COc1cc2c(Nc3ccc(Cl)c(Cl)c3)ncnc2cc1OCC1CN(CCCc2ccccc2)CCO1` (stereo not shown) [Example 271, N-(3,4-dichlorophenyl)-6-(methyloxy)-7-({[4-(3-phenylpropyl)morpholin-2-yl]methyl}oxy)quinazolin-4-amine], the IC50 at EphA2 is 1000 to 20000 nM; against EphB4, 50 to 1000 nM; at EGFR it was < 50 nM.

`COCCN1CCOC(COc2cc3ncnc(Nc4ccc(Cl)c(Cl)c4)c3cc2OC)C1` (stereo not shown) [Example 272, N-(3,4-dichlorophenyl)-6-(methyloxy)-7-[({4-[2-(methyloxy)ethyl]morpholin-2-yl}methyl)oxy]quinazolin-4-amine]: the half-inhibitory concentration (IC50) was 1000 to 20000 nM on EphA2, 50 to 1000 nM against EphB4 and < 50 nM on EGFR.

`CCOC(=O)C(C)N1CCOC(COc2cc3ncnc(Nc4ccc(Cl)c(Cl)c4)c3cc2OC)C1` (stereo not shown) [Example 273, ethyl 2-[2-({[4-[(3,4-dichlorophenyl)amino]-6-(methyloxy)quinazolin-7-yl]oxy}methyl)morpholin-4-yl]propanoate]: the 50% inhibitory concentration (IC50) on EphA2 is 1000 to 20000 nM; on EphB4 it was 1000 to 20000 nM; at EGFR, < 50 nM.

As to `COc1cc2c(Nc3ccc(Cl)c(Cl)c3)ncnc2cc1OCC1CN(CCOCCO)CCO1` (stereo not shown) [Example 275, 2-({2-[2-({[4-[(3,4-dichlorophenyl)amino]-6-(methyloxy)quinazolin-7-yl]oxy}methyl)morpholin-4-yl]ethyl}oxy)ethanol], the figures for the half-inhibitory concentration (IC50) on EphA2, on EphB4 and on EGFR were 1000 to 20000 nM, 1000 to 20000 nM and < 50 nM, respectively.

Turning to `COc1cc2c(Nc3ccc(Cl)c(Cl)c3)ncnc2cc1OCC1CN(CCCCCC#N)CCO1` (stereo not shown) [Example 277, 6-[2-({[4-[(3,4-dichlorophenyl)amino]-6-(methyloxy)quinazolin-7-yl]oxy}methyl)morpholin-4-yl]hexanenitrile], the IC50 at EphA2 is 1000 to 20000 nM; against EphB4, 50 to 1000 nM; at EGFR, < 50 nM.
